{"source": "patent EP0025288A1", "about": "“Derivatives of monic acid, processes for their preparation, compositions containing them and their preparation” (priority 1979, dated 1981)", "key": {"M. bovis NCTC 10131": {"test_system": "M. bovis NCTC 10131", "test": "microbe, parasite or virus in culture", "assay_type": "cell-based", "details": "NCTC10131, 144 h, read-out: in vitro MIC"}, "[1]": {"test": "Serum binding by ultrafiltration", "assay_type": "in vitro ADME, pig", "details": "pig, serum, compounds at 8 mcg/ml, microbiological assay (B. subtilis ATCC 6633), read-out: % bound to pig serum (converted)", "procedure": "Serum binding was assessed by ultrafiltration of procine serum containing compounds at 8 mcg/ml, and through an Amicon CF50A ultrafiltration cone. Separation of ultrafiltrate was achieved by centrifugation."}, "E coli E1": {"test_system": "E coli E1", "test": "MIC, veterinary bacteria", "assay_type": "cell-based", "details": "veterinary bacteria (Table 2), read-out: MIC"}, "[2]": {"test_system": "Strep suis (group D) SPS11", "test": "MIC, veterinary bacteria", "assay_type": "cell-based", "details": "veterinary bacteria (Table 2), read-out: MIC"}, "Staph aureus Oxford": {"test_system": "Staph aureus Oxford", "test": "MIC, veterinary bacteria", "assay_type": "cell-based", "details": "Staphylococcus aureus, veterinary bacteria (Table 2), read-out: MIC"}, "[3]": {"test_system": "M. hyosynoviae ATCC 25591", "test": "MIC, anti-mycoplasmal, Friis broth solidified with 0.9% agarose", "assay_type": "cell-based", "details": "144 h, inoculum 10^3 to 10^5 C.F.U., 6 days incubation at 37°C, read-out: in vitro MIC"}, "[4]": {"test_system": "M. suipneumoniae PW/C/210", "test": "MIC, anti-mycoplasmal, Friis broth solidified with 0.9% agarose", "assay_type": "cell-based", "details": "Mesomycoplasma hyopneumoniae, 144 h, inoculum 10^3 to 10^5 C.F.U., 6 days incubation at 37°C, read-out: in vitro MIC"}, "E coli NCTC 10418": {"test_system": "E coli NCTC 10418", "test": "MIC, veterinary bacteria", "assay_type": "cell-based", "details": "veterinary bacteria (Table 2), read-out: MIC"}, "[5]": {"test_system": "M. suipneumoniae J2206/183b", "test": "MIC, anti-mycoplasmal, Friis broth solidified with 0.9% agarose", "assay_type": "cell-based", "details": "Mesomycoplasma hyopneumoniae, 144 h, inoculum 10^3 to 10^5 C.F.U., 6 days incubation at 37°C, read-out: in vitro MIC"}, "Strep uberis SPU1": {"test_system": "Strep uberis SPU1", "test": "MIC, veterinary bacteria", "assay_type": "cell-based", "details": "veterinary bacteria (Table 2), read-out: MIC"}, "M. suipneumoniae Str. 11": {"test_system": "M. suipneumoniae Str. 11", "test": "MIC, anti-mycoplasmal, Friis broth solidified with 0.9% agarose", "assay_type": "cell-based", "details": "Mesomycoplasma hyopneumoniae, 144 h, inoculum 10^3 to 10^5 C.F.U., 6 days incubation at 37°C, read-out: in vitro MIC"}, "M. hyorhinis ATCC 23234": {"test_system": "M. hyorhinis ATCC 23234", "test": "MIC, anti-mycoplasmal, Friis broth solidified with 0.9% agarose", "assay_type": "cell-based", "details": "Mesomycoplasma hyorhinis, ATCC23234, 144 h, inoculum 10^3 to 10^5 C.F.U., 6 days incubation at 37°C, read-out: in vitro MIC"}, "S dublin S7": {"test_system": "S dublin S7", "test": "MIC, veterinary bacteria", "assay_type": "cell-based", "details": "veterinary bacteria (Table 2), read-out: MIC"}, "[6]": {"test_system": "Staph aureus 152 (pen sens)", "test": "MIC, veterinary bacteria", "assay_type": "cell-based", "details": "Staphylococcus aureus, veterinary bacteria (Table 2), read-out: MIC"}, "[7]": {"test_system": "Erysipelothrix rhusiopathiae NCTC 8163", "test": "MIC, veterinary bacteria", "assay_type": "cell-based", "details": "NCTC8163, veterinary bacteria (Table 2), read-out: MIC"}, "[8]": {"test_system": "M. suipneumoniae ATCC 25095", "test": "MIC, anti-mycoplasmal, Friis broth solidified with 0.9% agarose", "assay_type": "cell-based", "details": "Mesomycoplasma hyopneumoniae, ATCC25095, 144 h, inoculum 10^3 to 10^5 C.F.U., 6 days incubation at 37°C, read-out: in vitro MIC"}, "M. suipneumoniae HK(2)": {"test_system": "M. suipneumoniae HK(2)", "test": "MIC, anti-mycoplasmal, Friis broth solidified with 0.9% agarose", "assay_type": "cell-based", "details": "Mesomycoplasma hyopneumoniae, 144 h, inoculum 10^3 to 10^5 C.F.U., 6 days incubation at 37°C, read-out: in vitro MIC"}, "Past multocida PA2": {"test_system": "Past multocida PA2", "test": "MIC, veterinary bacteria", "assay_type": "cell-based", "details": "veterinary bacteria (Table 2), read-out: MIC"}, "Bord bronchiseptica BO8": {"test_system": "Bord bronchiseptica BO8", "test": "MIC, veterinary bacteria", "assay_type": "cell-based", "details": "veterinary bacteria (Table 2), read-out: MIC"}, "M. gallisepticum S6": {"test_system": "M. gallisepticum S6", "test": "MIC, anti-mycoplasmal, Friis broth solidified with 0.9% agarose", "assay_type": "cell-based", "details": "Mycoplasmoides gallisepticum, 144 h, inoculum 10^3 to 10^5 C.F.U., 6 days incubation at 37°C, read-out: in vitro MIC"}, "M. suipneumoniae TAM 6N": {"test_system": "M. suipneumoniae TAM 6N", "test": "MIC, anti-mycoplasmal, Friis broth solidified with 0.9% agarose", "assay_type": "cell-based", "details": "Mesomycoplasma hyopneumoniae, TAM6N, 144 h, inoculum 10^3 to 10^5 C.F.U., 6 days incubation at 37°C, read-out: in vitro MIC"}, "Strep dysgalaciae SPD1": {"test_system": "Strep dysgalaciae SPD1", "test": "MIC, veterinary bacteria", "assay_type": "cell-based", "details": "veterinary bacteria (Table 2), read-out: MIC"}, "M. suipneumoniae LABER": {"test_system": "M. suipneumoniae LABER", "test": "MIC, anti-mycoplasmal, Friis broth solidified with 0.9% agarose", "assay_type": "cell-based", "details": "Mesomycoplasma hyopneumoniae, 144 h, inoculum 10^3 to 10^5 C.F.U., 6 days incubation at 37°C, read-out: in vitro MIC"}, "M. pneumoniae ATCC 15492": {"test_system": "M. pneumoniae ATCC 15492", "test": "MIC, anti-mycoplasmal, Friis broth solidified with 0.9% agarose", "assay_type": "cell-based", "details": "Mycoplasmoides pneumoniae, ATCC15492, 144 h, inoculum 10^3 to 10^5 C.F.U., 6 days incubation at 37°C, read-out: in vitro MIC"}, "M. suipneumoniae JF 435": {"test_system": "M. suipneumoniae JF 435", "test": "MIC, anti-mycoplasmal, Friis broth solidified with 0.9% agarose", "assay_type": "cell-based", "details": "Mesomycoplasma hyopneumoniae, JF435, 144 h, inoculum 10^3 to 10^5 C.F.U., 6 days incubation at 37°C, read-out: in vitro MIC"}, "[9]": {"test_system": "M. bovigenitalium ATCC 14173", "test": "MIC, anti-mycoplasmal, Friis broth solidified with 0.9% agarose", "assay_type": "cell-based", "details": "144 h, inoculum 10^3 to 10^5 C.F.U., 6 days incubation at 37°C, read-out: in vitro MIC"}, "S typhimurium S18": {"test_system": "S typhimurium S18", "test": "MIC, veterinary bacteria", "assay_type": "cell-based", "details": "veterinary bacteria (Table 2), read-out: MIC"}, "[10]": {"test_system": "M. suipneumoniae NCTC 10110", "test": "MIC, anti-mycoplasmal, Friis broth solidified with 0.9% agarose", "assay_type": "cell-based", "details": "Mesomycoplasma hyopneumoniae, NCTC10110, 144 h, inoculum 10^3 to 10^5 C.F.U., 6 days incubation at 37°C, read-out: in vitro MIC"}, "Past Haemolytica PA5": {"test_system": "Past Haemolytica PA5", "test": "MIC, veterinary bacteria", "assay_type": "cell-based", "details": "veterinary bacteria (Table 2), read-out: MIC"}, "M. suipneumoniae NB12": {"test_system": "M. suipneumoniae NB12", "test": "MIC, anti-mycoplasmal, Friis broth solidified with 0.9% agarose", "assay_type": "cell-based", "details": "Mesomycoplasma hyopneumoniae, 144 h, inoculum 10^3 to 10^5 C.F.U., 6 days incubation at 37°C, read-out: in vitro MIC"}, "Strep agalactiae SPA1": {"test_system": "Strep agalactiae SPA1", "test": "MIC, veterinary bacteria", "assay_type": "cell-based", "details": "veterinary bacteria (Table 2), read-out: MIC"}}}
{"smiles": "CC(=CC(=O)OCCCC(=O)c1ccccc1)CC1OCC(CC2OC2C(C)C(C)O)C(O)C1O", "note": "(stereo not shown) [Example 5, 4-Phenylbutan-4-onyl monate A]", "values": [{"measurement": "MIC", "setting": "M. bovis NCTC 10131", "value": "≤ 0.01", "unit": "µg/mL"}, {"measurement": "fraction unbound", "setting": "[1]", "value": 0.036}, {"measurement": "MIC", "setting": "E coli E1", "value": 80, "unit": "µg/mL"}, {"measurement": "MIC", "setting": "[2]", "value": 5, "unit": "µg/mL"}, {"measurement": "MIC", "setting": "Staph aureus Oxford", "value": 0.156, "unit": "µg/mL"}, {"measurement": "MIC", "setting": "[3]", "value": 0.05, "unit": "µg/mL"}, {"measurement": "MIC", "setting": "[4]", "value": 0.25, "unit": "µg/mL"}, {"measurement": "MIC", "setting": "E coli NCTC 10418", "value": 80, "unit": "µg/mL"}, {"measurement": "MIC", "setting": "[5]", "value": 0.5, "unit": "µg/mL"}, {"measurement": "MIC", "setting": "Strep uberis SPU1", "value": 0.07, "unit": "µg/mL"}, {"measurement": "MIC", "setting": "M. suipneumoniae Str. 11", "value": 0.25, "unit": "µg/mL"}, {"measurement": "MIC", "setting": "M. hyorhinis ATCC 23234", "value": 0.25, "unit": "µg/mL"}, {"measurement": "MIC", "setting": "S dublin S7", "value": "> 80", "unit": "µg/mL"}, {"measurement": "MIC", "setting": "[6]", "value": 0.156, "unit": "µg/mL"}, {"measurement": "MIC", "setting": "[7]", "value": 40, "unit": "µg/mL"}, {"measurement": "MIC", "setting": "[8]", "value": 0.25, "unit": "µg/mL"}, {"measurement": "MIC", "setting": "M. suipneumoniae HK(2)", "value": 0.5, "unit": "µg/mL"}, {"measurement": "MIC", "setting": "Past multocida PA2", "value": 0.312, "unit": "µg/mL"}, {"measurement": "MIC", "setting": "Bord bronchiseptica BO8", "value": 40, "unit": "µg/mL"}, {"measurement": "MIC", "setting": "M. gallisepticum S6", "value": 1, "unit": "µg/mL"}, {"measurement": "MIC", "setting": "M. suipneumoniae TAM 6N", "value": 0.5, "unit": "µg/mL"}, {"measurement": "MIC", "setting": "Strep dysgalaciae SPD1", "value": 0.07, "unit": "µg/mL"}, {"measurement": "MIC", "setting": "M. suipneumoniae LABER", "value": 0.25, "unit": "µg/mL"}, {"measurement": "MIC", "setting": "M. pneumoniae ATCC 15492", "value": 1, "unit": "µg/mL"}, {"measurement": "MIC", "setting": "M. suipneumoniae JF 435", "value": 0.5, "unit": "µg/mL"}, {"measurement": "MIC", "setting": "[9]", "value": 0.025, "unit": "µg/mL"}, {"measurement": "MIC", "setting": "S typhimurium S18", "value": 80, "unit": "µg/mL"}, {"measurement": "MIC", "setting": "[10]", "value": 0.5, "unit": "µg/mL"}, {"measurement": "MIC", "setting": "Past Haemolytica PA5", "value": 10, "unit": "µg/mL"}, {"measurement": "MIC", "setting": "M. suipneumoniae NB12", "value": 0.5, "unit": "µg/mL"}, {"measurement": "MIC", "setting": "Strep agalactiae SPA1", "value": 0.625, "unit": "µg/mL"}]}
